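Exposure lasted 48 hours, with cells grown in 96-well plates and compounds tested at five concentrations. At the GI50, growth is halved. TGI is the concentration that stops growth completely.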
Assays:
Experiment in all cases: DTP human tumour cell line panel, 48 h
786-0 renal = tested on: 786-0 renal
MCF7 breast = tested on: MCF7 breast
ACHN renal = tested on: ACHN renal
M14 melanoma = tested on: M14 melanoma
OVCAR-3 ovarian = tested on: OVCAR-3 ovarian
OVCAR-8 ovarian = tested on: OVCAR-8 ovarian
SK-MEL-28 melanoma = tested on: SK-MEL-28 melanoma
T-47D breast = tested on: T-47D breast
HCC-2998 colon = tested on: HCC-2998 colon
HCT-15 colon = tested on: HCT-15 colon
NCI-H226 lung = tested on: NCI-H226 lung
COLO 205 colon = tested on: COLO 205 colon
HL-60(TB) leukemia = tested on: HL-60(TB) leukemia
HOP-92 NSCLC = tested on: HOP-92 NSCLC
HS 578T breast = tested on: HS 578T breast
HT29 colon = tested on: HT29 colon
SF-539 CNS = tested on: SF-539 CNS
SW-620 colon = tested on: SW-620 colon
SK-MEL-5 melanoma = tested on: SK-MEL-5 melanoma
NCI-H460 lung = tested on: NCI-H460 lung
HCT-116 colon = tested on: HCT-116 colon
PC-3 prostate = tested on: PC-3 prostate
K-562 leukemia = tested on: K-562 leukemia
UO-31 renal = tested on: UO-31 renal
TK-10 renal = tested on: TK-10 renal
RPMI-8226 leukemia = tested on: RPMI-8226 leukemia
EKVX NSCLC = tested on: EKVX NSCLC
SF-268 CNS = tested on: SF-268 CNS
KM12 colon = tested on: KM12 colon
SK-OV-3 ovarian = tested on: SK-OV-3 ovarian
U251 CNS = tested on: U251 CNS
OVCAR-4 ovarian = tested on: OVCAR-4 ovarian
UACC-257 melanoma = tested on: UACC-257 melanoma
DU-145 prostate = tested on: DU-145 prostate
CCRF-CEM leukemia = tested on: CCRF-CEM leukemia
MDA-MB-435 = tested on: MDA-MB-435
A549 NSCLC = tested on: A549 NSCLC
SNB-75 CNS = tested on: SNB-75 CNS
LOX IMVI melanoma = tested on: LOX IMVI melanoma
OVCAR-5 ovarian = tested on: OVCAR-5 ovarian
SR leukemia = tested on: SR leukemia
MOLT-4 leukemia = tested on: MOLT-4 leukemia
SK-MEL-2 melanoma = tested on: SK-MEL-2 melanoma
SF-295 CNS = tested on: SF-295 CNS
A498 renal = tested on: A498 renal
NCI-H23 lung = tested on: NCI-H23 lung
NCI/ADR-RES ovarian = tested on: NCI/ADR-RES ovarian
HOP-62 NSCLC = tested on: HOP-62 NSCLC
MDA-MB-231 breast = tested on: MDA-MB-231 breast
BT-549 breast = tested on: BT-549 breast
UACC-62 melanoma = tested on: UACC-62 melanoma
NCI-H522 lung = tested on: NCI-H522 lung
SNB-19 CNS = tested on: SNB-19 CNS
MALME-3M melanoma = tested on: MALME-3M melanoma
RXF 393 renal = tested on: RXF 393 renal
SN12C renal = tested on: SN12C renal

Compound: COc1ccc(/C=C/C(=O)c2ccc(NC(=O)CSc3nnc(-c4ccc(OC)c(OC)c4)n3-c3ccccc3)cc2)cc1
- GI50 (786-0 renal): 1.78 µM
- TGI (786-0 renal): 3.66 µM
- GI50 (MCF7 breast): 1.41 µM
- TGI (MCF7 breast): 5.14 µM
- GI50 (ACHN renal): 2.38 µM
- TGI (ACHN renal): 6.1 µM
- GI50 (M14 melanoma): 1.8 µM
- TGI (M14 melanoma): 3.9 µM
- GI50 (OVCAR-3 ovarian): 1.72 µM
- TGI (OVCAR-3 ovarian): 3.26 µM
- GI50 (OVCAR-8 ovarian): 3.09 µM
- TGI (OVCAR-8 ovarian): 14.1 µM
- GI50 (SK-MEL-28 melanoma): 5.78 µM
- TGI (SK-MEL-28 melanoma): 19.2 µM
- GI50 (T-47D breast): 2.54 µM
- TGI (T-47D breast): 12.4 µM
- GI50 (HCC-2998 colon): 2.97 µM
- TGI (HCC-2998 colon): 10.1 µM
- GI50 (HCT-15 colon): 1.8 µM
- TGI (HCT-15 colon): 4.27 µM
- GI50 (NCI-H226 lung): 3.92 µM
- TGI (NCI-H226 lung): 24.3 µM
- GI50 (COLO 205 colon): 2.1 µM
- TGI (COLO 205 colon): 4.56 µM
- GI50 (HL-60(TB) leukemia): 2.57 µM
- TGI (HL-60(TB) leukemia): 11.8 µM
- GI50 (HOP-92 NSCLC): 1.56 µM
- TGI (HOP-92 NSCLC): 3.45 µM
- GI50 (HS 578T breast): 7.68 µM
- TGI (HS 578T breast): 54.3 µM
- GI50 (HT29 colon): 1.86 µM
- TGI (HT29 colon): 3.58 µM
- GI50 (SF-539 CNS): 1.8 µM
- TGI (SF-539 CNS): 3.31 µM
- GI50 (SW-620 colon): 1.96 µM
- TGI (SW-620 colon): 4.07 µM
- GI50 (SK-MEL-5 melanoma): 1.81 µM
- TGI (SK-MEL-5 melanoma): 4.12 µM
- GI50 (NCI-H460 lung): 5.05 µM
- TGI (NCI-H460 lung): 18 µM
- GI50 (HCT-116 colon): 1.17 µM
- TGI (HCT-116 colon): 2.66 µM
- GI50 (PC-3 prostate): 3.09 µM
- TGI (PC-3 prostate): 13.8 µM
- GI50 (K-562 leukemia): 3.02 µM
- TGI (K-562 leukemia): 10.8 µM
- GI50 (UO-31 renal): 1.48 µM
- TGI (UO-31 renal): 3.84 µM
- GI50 (TK-10 renal): 14.6 µM
- TGI (TK-10 renal): 28.1 µM
- GI50 (RPMI-8226 leukemia): 1.72 µM
- TGI (RPMI-8226 leukemia): 4.41 µM
- GI50 (EKVX NSCLC): 3.05 µM
- TGI (EKVX NSCLC): 14.6 µM
- GI50 (SF-268 CNS): 1.89 µM
- TGI (SF-268 CNS): 4.88 µM
- GI50 (KM12 colon): 2.24 µM
- TGI (KM12 colon): 5.54 µM
- GI50 (SK-OV-3 ovarian): 13.1 µM
- TGI (SK-OV-3 ovarian): 26.3 µM
- GI50 (U251 CNS): 1.75 µM
- TGI (U251 CNS): 3.51 µM
- GI50 (OVCAR-4 ovarian): 1.96 µM
- TGI (OVCAR-4 ovarian): 4.75 µM
- GI50 (UACC-257 melanoma): 12 µM
- TGI (UACC-257 melanoma): 24.4 µM
- GI50 (DU-145 prostate): 3.21 µM
- TGI (DU-145 prostate): 10.8 µM
- GI50 (CCRF-CEM leukemia): 1.85 µM
- TGI (CCRF-CEM leukemia): 5.36 µM
- GI50 (MDA-MB-435): 1.91 µM
- TGI (MDA-MB-435): 4.13 µM
- GI50 (A549 NSCLC): 14.9 µM
- TGI (A549 NSCLC): 31.7 µM
- GI50 (SNB-75 CNS): 2.6 µM
- TGI (SNB-75 CNS): 14.9 µM
- GI50 (LOX IMVI melanoma): 1.46 µM
- TGI (LOX IMVI melanoma): 2.99 µM
- GI50 (OVCAR-5 ovarian): 14 µM
- TGI (OVCAR-5 ovarian): 28.3 µM
- GI50 (SR leukemia): 0.724 µM
- TGI (SR leukemia): 2.78 µM
- GI50 (MOLT-4 leukemia): 2.26 µM
- TGI (MOLT-4 leukemia): 9.14 µM
- GI50 (SK-MEL-2 melanoma): 5.03 µM
- TGI (SK-MEL-2 melanoma): 23.3 µM
- GI50 (SF-295 CNS): 12.2 µM
- TGI (SF-295 CNS): 25.9 µM
- GI50 (A498 renal): 14.7 µM
- TGI (A498 renal): 28 µM
- GI50 (NCI-H23 lung): 1.8 µM
- TGI (NCI-H23 lung): 4.01 µM
- GI50 (NCI/ADR-RES ovarian): 2.66 µM
- TGI (NCI/ADR-RES ovarian): > 100 µM
- GI50 (HOP-62 NSCLC): 4.36 µM
- TGI (HOP-62 NSCLC): 19.4 µM
- GI50 (MDA-MB-231 breast): 1.73 µM
- TGI (MDA-MB-231 breast): 3.65 µM
- GI50 (BT-549 breast): 1.6 µM
- TGI (BT-549 breast): 3.49 µM
- GI50 (UACC-62 melanoma): 2.26 µM
- TGI (UACC-62 melanoma): 6.59 µM
- GI50 (NCI-H522 lung): 1.48 µM
- TGI (NCI-H522 lung): 3.17 µM
- GI50 (SNB-19 CNS): 3.5 µM
- TGI (SNB-19 CNS): 16.9 µM
- GI50 (MALME-3M melanoma): 1.75 µM
- TGI (MALME-3M melanoma): 3.49 µM
- GI50 (RXF 393 renal): 1.66 µM
- TGI (RXF 393 renal): 3.35 µM
- GI50 (SN12C renal): 2.25 µM
- TGI (SN12C renal): 7.09 µM
